Source: ChEMBL document CHEMBL1201862, “PubChem BioAssay data set” (2004)
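Interpolation was linear, between the two tested concentrations surrounding the appropriate level; five concentrations were tested over 48 hours in 96-well plates. GI50 is the concentration that inhibits growth by half.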 Activity calls are given as the source filed them. No stated cut-off is given here; in the data, active = GI50 up to about 1.1 µM and inactive = higher.

Columns and labels:
Assay in all cases: NCI anticancer screen, dose series, 48 h
[1] = test system: ACHN
[2] = test system: SNB-75
[3] = test system: RPMI-8226
[4] = test system: SF-539
[5] = test system: LXFL 529
[6] = test system: IGROV-1
[7] = test system: HOP-62
[8] = test system: SF-268
[9] = test system: UO-31
[10] = test system: SK-MEL-2
[11] = test system: HT-29
[12] = test system: UACC-62
[13] = test system: 786-0
[14] = test system: K562
[15] = test system: HCC 2998
[16] = test system: SNB-19
[17] = test system: CAKI-1
[18] = test system: Hs-578T
[19] = test system: BT-549
[20] = test system: PC-3

Measured: GI50

OC(c1ccccc1)(c1ccccc1)c1ccncc1
inactive: [1] > 100 µM | [2] 36.6 µM | [3] > 100 µM | [4] 59.4 µM | [5] > 100 µM | [6] > 100 µM | [7] > 100 µM | [8] > 100 µM | [9] > 100 µM | [10] > 100 µM | [11] > 100 µM | [12] > 100 µM | [13] 66.1 µM | [14] > 100 µM | [15] > 100 µM | [16] > 100 µM | [17] > 100 µM

CN1C/C(=C\C=C\c2ccccc2)C(=O)/C(=C/C=C/c2ccccc2)C1
inactive: [1] > 100 µM | [2] > 100 µM | [3] > 100 µM | [4] > 100 µM | [5] 78.7 µM | [6] > 100 µM | [7] > 100 µM | [8] > 100 µM | [9] > 100 µM | [10] > 100 µM | [11] > 100 µM | [12] > 100 µM | [13] 87.3 µM | [14] > 100 µM | [15] > 100 µM | [16] 39.6 µM | [17] > 100 µM

N#Cc1ccc(Sc2ccccc2)cc1C#N
inactive: [1] > 100 µM | [2] 21.7 µM | [3] 28.1 µM | [4] 19.7 µM | [5] 59.7 µM | [6] > 100 µM | [7] 36.9 µM | [8] 22.6 µM | [9] > 100 µM | [10] > 100 µM | [11] > 100 µM | [12] > 100 µM | [13] 28.1 µM | [14] 45.8 µM | [15] > 100 µM | [16] 39.3 µM | [17] > 100 µM

C/C(=N/N)c1sc(-c2nc(C)c(/C(C)=N\N)s2)nc1C
inactive: [1] > 100 µM | [2] > 100 µM | [3] 35.7 µM | [4] > 100 µM | [5] 50.8 µM | [6] > 100 µM | [7] > 100 µM | [8] > 100 µM | [9] > 100 µM | [10] > 100 µM | [11] > 80.9 µM | [12] > 92.7 µM | [13] > 55.6 µM | [14] 47.3 µM | [15] > 100 µM | [16] > 100 µM | [17] > 100 µM

COc1cc2ccnc3c(=C(SC)SC)c(=O)c(c1OC)c23
inactive: [1] 12.9 µM | [2] 10.2 µM | [3] 3.29 µM | [4] 17.4 µM | [5] 4.65 µM | [6] 21 µM | [7] > 100 µM | [8] 22.2 µM | [9] 14.6 µM | [10] 16.2 µM | [11] 12.3 µM | [12] 17.8 µM | [13] 11 µM | [14] 3.29 µM | [15] 16.4 µM | [16] 53.2 µM | [17] 10.3 µM

CN1C/C(=C\c2ccco2)c2nc(N)nc(-c3ccco3)c2C1
inactive: [1] > 100 µM | [2] 85.3 µM | [3] 31.7 µM | [4] > 100 µM | [5] 74.1 µM | [6] > 100 µM | [7] > 100 µM | [8] > 100 µM | [9] > 100 µM | [10] > 100 µM | [11] 99.8 µM | [12] > 100 µM | [13] > 100 µM | [14] > 100 µM | [15] > 100 µM | [16] > 100 µM | [17] > 100 µM

CCN(CC)CCNc1ccc2nnn3c4ccc([N+](=O)[O-])cc4c(=O)c1c23
inactive: [1] 3.28 µM | [2] 4.91 µM | [3] 6.15 µM | [4] 3.35 µM | [5] 4.98 µM | [6] 5.38 µM | [7] 2.28 µM | [8] 6.37 µM | [9] 3.44 µM | [10] 9.75 µM | [18] 14.1 µM | [19] > 100 µM | [11] 3.89 µM | [12] > 36.4 µM | [13] 4.34 µM | [20] 5.26 µM | [14] 6.7 µM | [15] 25.8 µM | [16] 6.43 µM | [17] 4.14 µM

C[C@]12C=CC(=O)C=C1CC[C@@H]1[C@@H]2CC[C@]2(C)OC(=O)CC[C@@H]12 [TESTOLACTONE]
inactive: [1] 453 µM | [2] 292 µM | [3] 450 µM | [4] 454 µM | [5] > 500 µM | [6] 453 µM | [7] > 467 µM | [8] > 489 µM | [9] 444 µM | [10] > 478 µM | [18] 319 µM | [19] 237 µM | [11] > 493 µM | [12] 323 µM | [13] > 500 µM | [20] > 500 µM | [14] 449 µM | [15] 372 µM | [16] > 500 µM | [17] 372 µM
